Each block holds one compound with its values, some of them ahead of it.
Tests used:
type II diabete model = settings: mice; cited from earlier work
NLRP3 inflammasome = NLRP3 inflammasome (Homo sapiens, UniProt Q96P20); settings: cited from earlier work
[1] = tested on: cryopyrin-associated auto-inflammatory syndrome (cAPS) model; settings: mice; cited from earlier work
NLRP3 = target: T1, NLRP3 (Homo sapiens, UniProt Q96P20); assay: IC50 experiment for the detection of NLRP3 antagonist using THP-1 cells (IL-1β secretion, PMA/LPS/ATP); format: cell-based
T1 construct: endogenous in cells
T1 sequence (Q96P20 whole entry): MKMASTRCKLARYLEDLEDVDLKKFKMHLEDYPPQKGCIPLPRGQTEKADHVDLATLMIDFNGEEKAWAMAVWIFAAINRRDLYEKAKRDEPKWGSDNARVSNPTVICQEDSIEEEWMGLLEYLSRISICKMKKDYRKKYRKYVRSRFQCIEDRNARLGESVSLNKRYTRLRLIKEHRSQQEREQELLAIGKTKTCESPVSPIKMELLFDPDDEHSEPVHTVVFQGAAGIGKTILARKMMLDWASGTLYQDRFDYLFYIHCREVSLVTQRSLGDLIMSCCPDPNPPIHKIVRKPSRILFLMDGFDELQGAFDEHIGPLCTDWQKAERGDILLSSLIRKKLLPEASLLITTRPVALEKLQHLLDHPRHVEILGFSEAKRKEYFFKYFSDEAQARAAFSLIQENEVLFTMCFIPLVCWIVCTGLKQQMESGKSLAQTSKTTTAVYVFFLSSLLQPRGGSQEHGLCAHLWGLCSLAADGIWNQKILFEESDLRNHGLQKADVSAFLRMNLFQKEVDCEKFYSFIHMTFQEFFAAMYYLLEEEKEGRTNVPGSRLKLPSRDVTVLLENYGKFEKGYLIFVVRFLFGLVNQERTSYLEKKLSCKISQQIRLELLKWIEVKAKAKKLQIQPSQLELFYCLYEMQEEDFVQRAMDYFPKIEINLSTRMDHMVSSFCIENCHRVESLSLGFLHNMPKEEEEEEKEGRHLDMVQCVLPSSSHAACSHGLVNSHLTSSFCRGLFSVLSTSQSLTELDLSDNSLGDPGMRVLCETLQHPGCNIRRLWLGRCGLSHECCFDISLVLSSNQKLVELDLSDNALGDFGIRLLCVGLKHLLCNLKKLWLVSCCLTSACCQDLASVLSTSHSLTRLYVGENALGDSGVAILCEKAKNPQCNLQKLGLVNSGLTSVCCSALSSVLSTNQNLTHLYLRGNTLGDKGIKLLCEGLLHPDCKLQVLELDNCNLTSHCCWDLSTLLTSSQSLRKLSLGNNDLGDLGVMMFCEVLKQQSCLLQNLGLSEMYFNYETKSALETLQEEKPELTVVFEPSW
From the text: The chemical names and structural formulas of the compounds of the present disclosure for experimental use are shown in the preparation embodiments for each compound. • 1. Experimental principle: In this experiment, the human monocytic cell line THP1 was used to study the inhibitory activity (IC50) of NLRP3 antagonists on the secretion of IL-1β. The monocytic cell line THP1 was differentiated into mature macrophages using PMA (phorbol 12-myristate 13-acetate), and then the cells were stimulated using LPS (lipopolysaccharide), an agonist of Toll-like receptor TLR4, to activate the transcriptional activity of inflammasome NLRP3 and the expression of IL-1β precursor pro-IL-1β. At this time, the NLRP3 antagonist was added, and then ATP was added to further mature and activate NLRP3, and activate downstream caspase-1. Pro-IL-1β could be enzyme-cleaved by the activated caspase-1 to mature IL-1β that could be secreted.

[2] = tested on: experimental autoimmune encephalomyelitis (EAE); settings: mice; cited from earlier work
[3] = tested on: MSU-induced Air Pouch acute gout model; assay: MSU-induced Air Pouch acute gout model, IL-6 and IL-1β in APLV; format: in vivo, C57BL/6 mice; settings: for level of IL-1β in APLV after treatment / level of IL-6 in APLV after treatment: MCC950 50 mg/kg po, 7a 50, 15, 5 mg/kg po, dexamethasone 10 mg/kg ip, MSU 3 mg
Procedure: Experimental Embodiment 3: Evaluation of the Therapeutic Effect of the Compound on the MSU-Induced Air Pouch Acute Gout Model in C57BL/6 Mice
Air Pouch of mouse is a cystic space similar to the human synovial membrane, and the injection of monosodium urate crystals (MSU) into the air pouch will cause an acute inflammatory response similar to human gout. The inflammatory cytokines IL-6 and IL-1β in the Air Pouch Lavage Fluid flushing fluid (APLV) were analyzed, and MCC950 was used as a control compound, and the efficacy of the compound of the present disclosure on the MSU-induced air pouch gout model in male C57BL/6 mice was tested.
On the seventh day, the drug was administered first, and the MSU crystal solution was injected into the air pouch after 1 hour, and the Air Pouch Lavage Fluid (APLV) was collected after 7 hours and analyzed.
1 g of uric acid was dissolved in 0.2 L of boiling water containing 6 mL of 1 N sodium hydroxide; after the pH was adjusted to 7.4, the solution was gradually cooled at room temperature and then left overnight at 4° C. MSU crystals were recovered by centrifugation and evaporated to dryness, dispensed into individual vials (3 mg), and sterilized by autoclaving.
Healthy C57BL/6 mice were numbered and grouped in the experiment, and 5 mL of sterile air was subcutaneously injected into the back of the mice on the same day of grouping (Day 1) and on the fourth day (Day 4) to generate an air pouch. On the seventh day (Day 7), each group of mice was given vehicle or test sample, and after 1 hour the suspension of MSU crystals (saline, 3 mg/mL) was injected into the air pouch. Air Pouch Lavage Fluid (APLV) would be collected after 6 hours, and ELISA kits would be used to test the levels of IL-6 and IL-1β in APLV. Results were expressed as average value±SEM. Statistical analysis was performed by a method of analysis of variance (ANOVA), followed by Dunnett test, and differences were considered significant when p<0.05.

[4] = Pharmacokinetic evaluation of compounds in mice; format: in vivo; settings: C57BL/6J mice
Procedure: Experimental Objective: To Test the Pharmacokinetics of Compounds in Mice
Experimental Materials: C57BL/6J Mice (Male, 6-8 Weeks Old)
Experimental operation: The clear solution obtained after the test compound was dissolved was administered to […] C57BL/6J mice (overnight fasting, 6-8 weeks old) via tail intravenous injection and intragastric administration (vehicle: 10% DMSO/10% solutol/80% water). After administration of test compound or control compound, blood was collected from the mandibular vein and centrifuged to obtain plasma at 0.0833, 0.25, 0.5, 1, 2, 4, 8 and 24 h for the intravenous injection group (IV) and at 0.25, 0.5, 1, 2, 4, 6, 8 and 24 h for the intragastric administration group (PO). The plasma concentration was determined by LC-MS/MS, and relevant pharmacokinetic parameters were calculated by the non-compartmental model linear logarithmic trapezoidal method using pharmacokinetic software WinNonlin™ Version 6.3. Meaning of each parameter: T1/2: half-life; Cmax: peak concentration; AUC0-inf: area under the plasma concentration-time curve from time 0 extrapolated to infinite time; F: bioavailability, Vd: apparent volume of distribution, Cl: clearance rate, Tmax: time to peak.

[5] = at the dose of 15 mg/kg and 50 mg/kg po

Sequence of NLRP3 inflammasome (Q96P20 whole entry): as above

SMILES: O=C(O)c1ccc(/C=C2\SC(=O)N(Cc3cccc(C(F)(F)F)c3)C2=O)cc1 [CY-09]
therapeutic effect on type II diabete model (type II diabete model): significant therapeutic effects | assembly and activation of NLRP3 inflammasome (NLRP3 inflammasome): specifically blocks | therapeutic effect on cAPS model [1]: significant therapeutic effects

SMILES: CC(C)(O)c1coc(S(=O)(=O)NC(=O)Nc2c3c(cc4c2CCC4)CCC3)c1 [MCC950, reference compound]
severity of experimental autoimmune encephalomyelitis (EAE) [2]: reduce the severity | level of IL-1β in APLV after treatment [3]: decreased rapidly | level of IL-6 in APLV after treatment [3]: decreased rapidly

SMILES: COc1cc(-c2cccc(C(C)C)c2NC(=O)NS(=O)(=O)c2ccc(N=S(C)(C)=O)s2)ccn1 [Compound 2]
IC50 (NLRP3): 40 nM

More lines, in order of falling IC50 (NLRP3), values ahead:

IC50 (NLRP3): 33.9 nM
SMILES: CS(C)(=O)=Nc1ccc(S(=N)(=O)NC(=O)Nc2c3c(cc4c2CCC4)CCC3)s1 (single isomer, unassigned) [Compound 4a]

IC50 (NLRP3): 27.8 nM
SMILES: CS(C)(=O)=Nc1ccc(S(=N)(=O)NC(=O)Nc2c(-c3ccnc(C#N)c3)ccc3c2CCC3)s1 (stereo not drawn) [Compound 8]

IC50 (NLRP3): 10 nM
SMILES: COc1cc(-c2ccc3c(c2NC(=O)NS(=O)(=O)c2ccc(N=S(C)(C)=O)s2)CCC3)ccn1 [Compound 3]

IC50 (NLRP3): 9.8 nM | F ([4]; PO 20 mg/kg vs IV 3 mg/kg): 67.6% | AUC(0-inf) ([4]; mouse, plasma, IV 3 mg/kg): 65.7 µM·h | Vd ([4]; mouse, plasma, IV 3 mg/kg): 0.25 L/kg | clearance ([4]; mouse, plasma, IV 3 mg/kg): 1.68 mL/min/kg | half-life ([4]; mouse, plasma, IV 3 mg/kg): 126 min | AUC(0-inf) ([4]; mouse, plasma, PO 20 mg/kg): 296 µM·h | Cmax ([4]; mouse, plasma, PO 20 mg/kg): 102 µM | Tmax ([4]; mouse, plasma, PO 20 mg/kg): 30 min
SMILES: CS(C)(=O)=Nc1cnc(S(=N)(=O)NC(=O)Nc2c3c(cc4c2CCC4)CCC3)s1 (single isomer, unassigned) [Compound 7a]
level of IL-1β in APLV after treatment [3]: decreased rapidly | level of IL-6 in APLV after treatment [3]: decreased rapidly | reducing IL-6 in APLV compared with dexamethasone (10 mg/kg dose) ([3]; at high, medium and low doses (50, 15, 5 mg/kg po)): better than dexamethasone | reducing IL-1β in APLV compared with MCC950 (50 mg/kg dose) [3, 5]: significantly better than that of MCC950 | reducing IL-1β in APLV compared with dexamethasone (10 mg/kg) [3, 5]: reaching the same effect as dexamethasone | reducing IL-6 in APLV compared with MCC950 (50 mg/kg dose) [3, 5]: better than MCC950 | effect on reducing IL-1β in APLV ([3]; po, MSU-induced air pouch): significant effect

IC50 (NLRP3): 7.4 nM
SMILES: COc1cc(-c2ccc3c(c2NC(=O)NS(=N)(=O)c2ccc(N=S(C)(C)=O)s2)CCC3)ccn1 (single isomer, unassigned) [Compound 5a]

From US12428391B2, “Dimethylsulfoximine derivative” (CISEN PHARMACEUTICAL CO., LTD, priority 2020, dated 2025)
